Measured values published in patent US20150023887A1, “Antiperspirant Spray Devices and Compositions” (The Procter & Gamble Company, priority 2013, published 2015).

Excerpt: (§1) Solubility may be determined by measuring the amount of light transmittance (a light transmittance value) through a simple mixture of the non-volatile silicone fluid and liquid activation enhancer at the same weight/weight concentrations as in a final antiperspirant composition.
as §1, with “Solubility of a liquid activation enhancer in a non-volatile silicone” for “Solubility”, “(light” for “(a light”
The Spectronic Genesys 10 Vis utilizes a tungsten-halogen light source and has a spectral bandwidth of 5 nm, a wavelength range of 325 to 1100 nm, accuracy of ±1 nm and a repeatability of ±0.5 nm. Readouts include absorbance, transmittance and concentration. The spectrophotometer is set to 640 nm wavelength and the percent transmittance mode/readout. Polystyrene spectrometer cuvettes having a 1 cm optical light path and transmittance between ˜340 nm and ˜900 nm are used. One suitable example of a spectrometer cuvette is available from VWR International LLC under Catalog #97000-584 having a 2.5 to 4.5 ml capacity. The spectrophotometer is calibrated according to the manufacturer's instructions using a reference cuvette and composition comprised of just the non-volatile silicone fluid of interest. For example, if the test composition comprises 50 centistoke dimethicone and 15% w/w of isopropyl myristate, then the spectrometer is calibrated using a cuvette containing just 50 centistoke dimethicone. Sample cuvettes are filled sufficiently with a test composition of a non-volatile silicone fluid and liquid activation enhancer so that the light path of the spectrophotometer passes through the test composition in the cuvette. The sample cuvettes are shaken well just prior to taking a light transmittance reading.

Question: With `CCCCCCCCCCCCCC(C)C` [isohexadecane] as the compound, how does the light transmittance value read?
Answer: about 100%

Question: And the “solubility in 50 centistoke dimethicone” value?
Answer: soluble in 50 centistoke dimethicone across the 2% to 30% w/w concentration range

Question: Which “solubility in 50 centistoke dimethicone” value does the source give for mineral oil here?
Answer: soluble in 50 centistoke dimethicone at some (lower) concentrations

Question: For PPG-14 butyl ether, which “solubility in 50 centistoke dimethicone” value is on record?
Answer: insoluble in 50 centistoke dimethicone across the 2% to 30% w/w concentration range

Question: With `CCCCCCCCCCCCCCCCCC(=O)OCCCC` [butyl stearate] as the compound, how does the light transmittance value read?
Answer: about 100%

Question: Which light transmittance value does the source give for `CCCCCCCCCCCCCCCC(=O)OC(C)C` [isopropyl palmitate] here?
Answer: about 101%

Question: With `CCCCCCCCCCC(CO)CCCCCCCC` (centres unmarked) [octyldodecanol] as the compound, how does the “solubility in 50 centistoke dimethicone” value read?
Answer: soluble in the 50 centistoke dimethicone at some (lower) concentrations

Question: With `CCCCCCCCCCCCCC(=O)OC(C)C` [isopropyl myristate] as the compound, how does the light transmittance value read?
Answer: about 101%
